Experimental data reported in PMC8881610 (Nature Communications, 2022).

Test system: GCGR
Assay: cAMP accumulation assay, GCGR WT, mutant or modified constructs
Format: cell-based, human
Conditions: GCGR triple mutant (Q142A + D195A + R199A) vs WT
Method: Human embryonic kidney 293 cells containing SV40 large T-antigen (HEK293T) were cultured in DMEM (Gibco) supplemented with 10% (v/v) fetal bovine serum (FBS, Gibco), 1 mM sodium pyruvate (Gibco) and 100 units/mL penicillin and 100 μg/mL streptomycin at 37 °C in 5% CO2. Chinese hamster ovary (CHO-K1) cells were cultured in F-12 (Gibco) containing 10% FBS, 100 units/mL penicillin and 100 μg/mL streptomycin at 37 °C in 5% CO2. For cAMP and receptor expression assays, HEK293T cells were seeded into 6-well cell culture plates at a density of 7 × 10^5 cells per well. After overnight incubation, cells were transfected with GIPR, GLP-1R or GCGR construct using Lipofectamine 2000 or Lipofectamine 3000 transfection reagent (Invitrogen). For whole-cell binding assay, CHO-K1 cells were seeded into 96-well fibronectin-treated cell culture plates at a density of 3 × 10^4 cells per well. After overnight incubation, cells were transfected with GIPR, GLP-1R or GCGR construct using Lipofectamine 2000 transfection reagent (Invitrogen). Following 24 h culturing, the transfected cells were ready for use. […]
For GIPR, GLP-1R and GCGR, multi-targeting agonist stimulated cAMP accumulation was measured by a LANCE Ultra cAMP kit (PerkinElmer). […] Plates were incubated at RT for 1 h and the fluorescence intensity measured at 620 nm and […] by an EnVision multilabel plate reader (PerkinElmer).

For `CCCCCCCCCCCCCCCC(=O)N[C@@H](CCC(=O)NCCCC[C@H](NC(=O)[C@H](CC(=O)O)NC(=O)[C@H](CO)NC(=O)[C@@H](NC(=O)[C@H](Cc1ccccc1)NC(=O)[C@@H](NC(=O)CNC(=O)[C@H](CCC(N)=O)NC(=O)C(C)(C)NC(=O)[C@@H](N)Cc1c[nH]cn1)[C@@H](C)O)[C@@H](C)O)C(=O)N[C@@H](CO)C(=O)N[C@@H](CCCCN)C(=O)N[C@@H](Cc1ccc(O)cc1)C(=O)N[C@@H](CC(C)C)C(=O)N[C@@H](CC(=O)O)C(=O)N[C@@H](CCC(=O)O)C(=O)N[C@@H](CCCNC(=N)N)C(=O)N[C@@H](C)C(=O)N[C@@H](C)C(=O)N[C@@H](CCC(N)=O)C(=O)N[C@@H](CC(=O)O)C(=O)N[C@@H](Cc1ccccc1)C(=O)N[C@H](C(=O)N[C@@H](CCC(N)=O)C(=O)N[C@@H](Cc1c[nH]c2ccccc12)C(=O)N[C@@H](CC(C)C)C(=O)N[C@@H](CC(C)C)C(=O)N[C@@H](CC(=O)O)C(=O)NCC(=O)NCC(=O)N1CCC[C@H]1C(=O)N[C@@H](CO)C(=O)N[C@@H](CO)C(=O)NCC(=O)N[C@@H](C)C(=O)N1CCC[C@H]1C(=O)N1CCC[C@H]1C(=O)N1CCC[C@H]1C(=O)N[C@@H](CO)C(N)=O)C(C)C)C(=O)O` [Peptide 20], the “reduction of potency (cAMP) by receptor mutation” value was 93 fold.
